This note sets out measurements from US20240238426A1, “PROTEIN ACYLATION MODULATION BY HETEROBIFUNCTIONAL MOLECULES” (THE SCRIPPS RESEARCH INSTITUTE, priority 2021, published 2024).

Experiment [1] deals with p21. Briefly: qPCR analysis of p21 mRNA level in FKBP12^F36V-p53 H1299 cells. It counts as cell-based, Human. The settings on record: indicated doses, 8 hr, FIG. 7C. On the technique in general: Real-time PCR tracks product formation cycle by cycle.
Experiment [2] has as its system p21. Briefly: Immunoblot of p21 expression in p53 H1299 cells without the FKBP12^F36V tag. It counts as cell-based, Human. To be noted: indicated doses, 8 hr, FIG. 7D. The method, then:
Immunoblotting: Cells were harvested in cold DPBS by scraping and washed with cold DPBS twice. Cell pellets were resuspended in DPBS supplemented with 5 mM sodium butyrate, 20 mM Nicotinamide, and 1X Halt Protease Inhibitor Cocktail and lysed by sonication (15 ms on, 40 ms off, 15% amplitude, 1s total on x 3). Protein concentration was determined using DC Protein Assay (Bio-Rad) and absorbance read using a CLARIOstar plate reader following manufacturer's instructions. Samples with equal protein content were boiled in 4X SDS gel loading buffer for 10 min. Proteins were separated by 10%, 12.5%, or 15% SDS-polyacrylamide gel electrophoresis and transferred to PVDF membranes using Trans-Blot Turbo RTA Mini […] LF PVDF Transfer Kit (Bio-Rad). Membranes were incubated for 1 h at room temperature with blocking buffer, followed by incubating overnight at 4° C. with primary antibodies. After washing in TBST, the secondary antibodies were incubated with the membranes at room temperature for 1 h. The membranes were washed with TBST for three times and visualized on a Bio-Rad ChemiDoc MP Imaging System with Clarity Max Western ECL substrate (Bio-Rad) or SuperSignal West Femto Chemiluminescent substrate proprietary luminol and peroxide solution kit (Thermo Scientific Pierce).
On the technique in general: Immunoblotting shows a protein as a band on a membrane.

The target in the next experiment is T1, H3.3-FKBP12^F36V (Homo sapiens, UniProt P62942+Q09472, F37V).
T1 construct: expressed in transfected cells
In words: Quantitative proteomic (TMT MS) analysis of H3.3 acetylation. It counts as cell-based. To be noted: 625 nM AceTAG-1 vs DMSO, FIG. 5A. The method, then: Sample preparation: Cells were split in 10 cm dishes in indicated media. The probes were added once the cells grew to 60%-70% confluency and incubated for indicated time. The cells were harvested and washed with cold DPBS twice. The pelleted cells were lysed in 1 mL lysis buffer, containing 10 mM Tris pH 7.5, 300 mM NaCl, 0.1% (v/v) NP40, 5 mM sodium butyrate, 20 mM Nicotinamide, and 1X Halt Protease Inhibitor, followed by centrifuging for 5 min at 1,000 g at 4° C. The pellets were resuspended in benzonase buffer, containing 50 mM Tris pH 7.5, 300 mM NaCl, 0.5% NP40, and 2.5 mM MgCl2. Protein concentration was normalized by DC Protein Assay (Bio-Rad) and equal amount of protein was subjected to 50 U/100 ml benzonase nuclease (Millipore Sigma) treatment.
Samples with benzonase were incubated on ice for 30 min and centrifuged at 300 g for 3 min at 4° C. to obtain soluble chromatin fraction. Samples were diluted with dilution buffer, containing 50 mM Tris pH 7.5, 300 mM NaCl, 0.5% NP40, and 15 mM EDTA to quench the benzonase activity. Protein concentration was normalized again by DC Protein Assay (Bio-Rad) and equal amount of protein was used for HA-tag protein enrichment as described above. The beads were washed with lysis buffer and DPBS and incubated with 8 M urea and boiled in 4X SDS gel loading buffer at 95° C. for 15 min. […]

A further experiment has as its target T2, p300 (Homo sapiens, UniProt Q09472).
T2 construct: expressed in transfected cells; host or cells: HEK293T (transient)
Briefly: In-situ photocrosslinking with p300-p probe and competition by AceTAG-1 in HEK293T cells. The class given is cell-based. The settings on record: increasing concentrations of AceTAG-1, 30 min, FIG. 3F. The method, then:
In-situ photocrosslinking with p300-BRD photocrosslinking probe and competition by AceTAG-1: At 50%-70% confluency, HEK293t cells in 6-well plates were transfected with pSG5-HA-p300. After 24 h, cells were co-treated for 30 min with […] p300-p probe and increasing concentration of AceTAG-1 in serum-free media. Cells then underwent UV-photocrosslinking (365 nm) for 20 min at 4° C. and harvested in cold DPBS by scraping and centrifugation. Cell pellets were washed with cold DPBS two times and aspirated. Cells were then lysed in 200 μL DPBS buffer supplemented with 1X Halt protease inhibitor cocktail. Lysate was fractionated by ultracentrifuge (100000 g, 45 min, 4° C.) to provide soluble fraction (supernatant) and membrane fraction (pellets). Soluble fraction was normalized to 2 mg/mL, underwent click reaction with Rhodamine-azide as previously described. Proteins (25 μg total protein loaded per gel lane) were resolved using SDS-PAGE (6% acrylamide). In-gel fluorescence visualization and immunoblot analysis was carried out as previously described.

For another experiment, the system named is TP53 target genes. Briefly: RNA-seq analysis of H1299 wt cells. It counts as cell-based, Human. The settings on record: 3 μM AceTAG-1, FIG. 7F.

T1 sequence (P62942 2-108 F37V limits assumed): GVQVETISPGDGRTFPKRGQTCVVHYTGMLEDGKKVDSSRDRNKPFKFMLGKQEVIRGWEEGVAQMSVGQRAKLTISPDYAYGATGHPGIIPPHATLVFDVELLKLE
T1 sequence (Q09472 2-2414 limits assumed, stated change not applied): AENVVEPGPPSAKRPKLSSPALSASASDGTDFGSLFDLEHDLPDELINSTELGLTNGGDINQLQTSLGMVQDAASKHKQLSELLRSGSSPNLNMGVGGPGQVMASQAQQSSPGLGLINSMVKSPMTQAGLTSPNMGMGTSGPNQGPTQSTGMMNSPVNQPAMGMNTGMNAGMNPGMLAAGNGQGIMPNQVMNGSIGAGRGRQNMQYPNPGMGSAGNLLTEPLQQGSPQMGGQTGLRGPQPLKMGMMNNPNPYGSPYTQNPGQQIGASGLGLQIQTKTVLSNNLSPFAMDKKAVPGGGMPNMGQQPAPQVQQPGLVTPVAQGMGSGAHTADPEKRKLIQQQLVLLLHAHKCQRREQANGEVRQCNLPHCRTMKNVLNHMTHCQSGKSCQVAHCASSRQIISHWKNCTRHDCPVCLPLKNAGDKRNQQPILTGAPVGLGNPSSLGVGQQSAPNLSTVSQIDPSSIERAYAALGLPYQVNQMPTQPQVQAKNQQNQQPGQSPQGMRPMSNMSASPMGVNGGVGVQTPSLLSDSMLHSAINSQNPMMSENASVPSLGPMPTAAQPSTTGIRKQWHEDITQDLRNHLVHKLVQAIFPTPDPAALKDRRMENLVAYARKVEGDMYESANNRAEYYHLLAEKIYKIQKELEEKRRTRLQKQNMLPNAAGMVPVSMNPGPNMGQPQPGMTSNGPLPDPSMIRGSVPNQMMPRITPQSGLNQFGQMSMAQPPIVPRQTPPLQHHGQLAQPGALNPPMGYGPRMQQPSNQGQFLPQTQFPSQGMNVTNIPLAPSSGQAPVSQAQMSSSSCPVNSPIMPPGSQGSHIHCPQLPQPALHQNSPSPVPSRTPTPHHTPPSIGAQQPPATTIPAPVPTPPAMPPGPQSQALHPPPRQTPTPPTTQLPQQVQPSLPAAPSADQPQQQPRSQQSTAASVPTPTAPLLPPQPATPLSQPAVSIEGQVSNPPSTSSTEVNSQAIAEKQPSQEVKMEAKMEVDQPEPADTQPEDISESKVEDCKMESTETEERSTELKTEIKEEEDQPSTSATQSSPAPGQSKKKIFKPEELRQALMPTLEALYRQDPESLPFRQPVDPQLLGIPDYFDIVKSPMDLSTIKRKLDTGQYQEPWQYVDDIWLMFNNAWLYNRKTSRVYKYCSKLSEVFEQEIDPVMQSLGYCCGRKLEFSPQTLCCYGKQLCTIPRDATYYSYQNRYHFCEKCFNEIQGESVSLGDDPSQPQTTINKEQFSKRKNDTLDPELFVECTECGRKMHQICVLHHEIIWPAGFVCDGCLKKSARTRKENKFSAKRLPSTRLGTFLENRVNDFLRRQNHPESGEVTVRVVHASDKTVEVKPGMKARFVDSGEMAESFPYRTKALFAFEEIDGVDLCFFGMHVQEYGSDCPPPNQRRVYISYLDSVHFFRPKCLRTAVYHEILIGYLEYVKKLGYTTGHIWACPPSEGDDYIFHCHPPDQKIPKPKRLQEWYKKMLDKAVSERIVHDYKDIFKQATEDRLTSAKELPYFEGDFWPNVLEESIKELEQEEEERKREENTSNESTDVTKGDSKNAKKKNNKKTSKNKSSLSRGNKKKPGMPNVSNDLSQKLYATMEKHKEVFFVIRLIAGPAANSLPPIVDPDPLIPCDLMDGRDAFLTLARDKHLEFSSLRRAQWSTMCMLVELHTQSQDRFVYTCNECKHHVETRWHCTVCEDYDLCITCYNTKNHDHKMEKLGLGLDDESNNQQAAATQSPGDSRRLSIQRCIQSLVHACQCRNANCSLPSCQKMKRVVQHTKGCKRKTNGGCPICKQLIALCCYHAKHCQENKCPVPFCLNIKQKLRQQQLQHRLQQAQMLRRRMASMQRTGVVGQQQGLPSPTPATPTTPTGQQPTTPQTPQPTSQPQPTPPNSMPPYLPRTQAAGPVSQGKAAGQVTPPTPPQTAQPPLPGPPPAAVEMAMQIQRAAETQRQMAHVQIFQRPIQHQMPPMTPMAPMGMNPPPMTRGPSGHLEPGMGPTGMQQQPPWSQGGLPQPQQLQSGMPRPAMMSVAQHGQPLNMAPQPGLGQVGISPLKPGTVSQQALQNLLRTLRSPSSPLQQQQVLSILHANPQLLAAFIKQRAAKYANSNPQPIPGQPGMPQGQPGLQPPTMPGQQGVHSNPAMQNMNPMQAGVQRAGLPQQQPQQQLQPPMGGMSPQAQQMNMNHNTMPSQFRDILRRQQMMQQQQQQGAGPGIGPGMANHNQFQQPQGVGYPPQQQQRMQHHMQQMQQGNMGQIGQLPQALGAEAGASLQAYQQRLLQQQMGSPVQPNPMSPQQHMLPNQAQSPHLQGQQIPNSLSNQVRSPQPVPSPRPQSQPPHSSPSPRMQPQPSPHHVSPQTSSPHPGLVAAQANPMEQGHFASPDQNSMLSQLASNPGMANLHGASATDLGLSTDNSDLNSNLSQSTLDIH
T2 sequence (Q09472 whole entry, species assumed): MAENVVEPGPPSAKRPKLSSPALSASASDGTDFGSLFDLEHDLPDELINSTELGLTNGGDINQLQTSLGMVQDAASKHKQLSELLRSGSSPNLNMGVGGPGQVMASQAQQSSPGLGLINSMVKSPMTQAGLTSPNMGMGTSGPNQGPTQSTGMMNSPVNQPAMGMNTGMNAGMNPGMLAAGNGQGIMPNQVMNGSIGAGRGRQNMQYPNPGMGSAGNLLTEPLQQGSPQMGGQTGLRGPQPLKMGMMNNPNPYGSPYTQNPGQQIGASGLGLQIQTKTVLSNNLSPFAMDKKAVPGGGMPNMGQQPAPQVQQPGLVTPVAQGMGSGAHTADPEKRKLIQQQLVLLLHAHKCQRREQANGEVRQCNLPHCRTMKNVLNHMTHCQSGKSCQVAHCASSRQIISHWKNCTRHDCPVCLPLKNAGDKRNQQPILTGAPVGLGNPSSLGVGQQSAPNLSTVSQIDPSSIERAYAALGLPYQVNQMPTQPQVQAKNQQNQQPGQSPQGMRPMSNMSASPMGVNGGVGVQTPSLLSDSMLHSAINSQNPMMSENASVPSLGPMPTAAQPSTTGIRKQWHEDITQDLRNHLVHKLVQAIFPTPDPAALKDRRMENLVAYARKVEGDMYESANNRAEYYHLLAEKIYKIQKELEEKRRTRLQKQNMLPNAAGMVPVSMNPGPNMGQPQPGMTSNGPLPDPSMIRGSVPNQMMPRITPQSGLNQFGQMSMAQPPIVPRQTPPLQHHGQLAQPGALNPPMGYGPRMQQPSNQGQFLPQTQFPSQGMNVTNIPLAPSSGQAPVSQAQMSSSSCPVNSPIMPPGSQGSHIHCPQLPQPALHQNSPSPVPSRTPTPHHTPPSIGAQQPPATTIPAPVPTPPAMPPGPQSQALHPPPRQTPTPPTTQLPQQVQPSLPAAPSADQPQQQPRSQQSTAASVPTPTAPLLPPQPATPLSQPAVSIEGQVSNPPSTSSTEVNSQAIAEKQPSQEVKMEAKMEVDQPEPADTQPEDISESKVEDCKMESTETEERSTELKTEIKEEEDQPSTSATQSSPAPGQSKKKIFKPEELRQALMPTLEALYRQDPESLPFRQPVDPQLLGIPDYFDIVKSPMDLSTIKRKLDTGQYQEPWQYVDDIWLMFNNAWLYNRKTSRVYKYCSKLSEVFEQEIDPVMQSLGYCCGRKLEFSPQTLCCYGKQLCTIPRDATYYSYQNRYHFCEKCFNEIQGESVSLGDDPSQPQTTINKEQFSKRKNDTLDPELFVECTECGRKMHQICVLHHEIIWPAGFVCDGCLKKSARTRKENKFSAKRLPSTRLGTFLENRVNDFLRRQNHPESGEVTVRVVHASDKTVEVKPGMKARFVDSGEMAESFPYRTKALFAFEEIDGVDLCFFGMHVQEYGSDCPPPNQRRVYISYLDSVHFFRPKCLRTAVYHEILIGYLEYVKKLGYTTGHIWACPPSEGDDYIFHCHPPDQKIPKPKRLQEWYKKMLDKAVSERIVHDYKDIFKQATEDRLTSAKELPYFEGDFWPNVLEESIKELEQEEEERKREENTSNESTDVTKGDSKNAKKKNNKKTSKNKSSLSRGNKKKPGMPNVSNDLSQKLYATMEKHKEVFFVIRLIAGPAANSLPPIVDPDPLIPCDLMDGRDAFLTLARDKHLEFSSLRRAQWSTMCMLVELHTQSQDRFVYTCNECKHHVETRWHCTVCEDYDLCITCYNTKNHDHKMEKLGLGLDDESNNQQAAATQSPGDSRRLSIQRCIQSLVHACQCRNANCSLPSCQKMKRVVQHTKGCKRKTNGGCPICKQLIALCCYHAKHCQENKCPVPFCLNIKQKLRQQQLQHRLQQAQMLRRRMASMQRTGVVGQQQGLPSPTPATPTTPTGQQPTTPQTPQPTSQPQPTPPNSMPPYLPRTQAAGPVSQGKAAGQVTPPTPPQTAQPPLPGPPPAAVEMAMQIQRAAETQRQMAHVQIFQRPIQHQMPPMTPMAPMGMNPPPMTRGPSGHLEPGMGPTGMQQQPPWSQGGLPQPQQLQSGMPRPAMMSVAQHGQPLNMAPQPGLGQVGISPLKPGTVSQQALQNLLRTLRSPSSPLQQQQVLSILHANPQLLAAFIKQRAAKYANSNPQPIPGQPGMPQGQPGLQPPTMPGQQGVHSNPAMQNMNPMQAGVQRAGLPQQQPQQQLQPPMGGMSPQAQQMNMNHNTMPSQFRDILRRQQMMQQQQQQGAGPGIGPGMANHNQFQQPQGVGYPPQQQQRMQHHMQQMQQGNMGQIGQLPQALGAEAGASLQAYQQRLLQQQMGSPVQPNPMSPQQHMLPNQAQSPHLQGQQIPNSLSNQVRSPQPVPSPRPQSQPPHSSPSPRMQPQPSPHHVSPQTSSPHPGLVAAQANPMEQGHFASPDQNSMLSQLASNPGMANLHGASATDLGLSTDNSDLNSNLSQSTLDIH

Consider `CC[C@H](C(=O)N1CCCC[C@H]1C(=O)O[C@H](CCc1ccc(OC)c(OC)c1)c1cccc(OCC(=O)NCCOCCOCCC(=O)NCCOc2ccc(CCc3nc4cc(-c5c(C)noc5C)ccc4n3CCN3CCOCC3)cc2)c1)c1cc(OC)c(OC)c(OC)c1` [AceTAG-1, (R)-3-(3,4-dimethoxyphenyl)-1-(3-((15-(4-(2-(5-(3,5-dimethylisoxazol-4-yl)-1-(2-morpholinoethyl)-1H-benzo[d]imidazol-2-yl)ethyl)phenoxy)-2,12-dioxo-6,9-dioxa-3,13-diazapentadecyl)oxy)phenyl)propyl (S)-1-((S)-2-(3,4,5-trimethoxyphenyl)butanoyl)piperidine-2-carboxylate], for which the “transcription of p21 (mRNA, qPCR)” value in the experiment on p21 [1] is “confirmed”. For the same compound, in the experiment with p21 [2], the “p21 induction in H1299 cells expressing p53 without the FKBP12^F36V tag” value is on record as “not observed”. Also, on H3.3-FKBP12^F36V, the “acetylation at K18, K23, and K27 by quantitative MS” value is “substantial increases”; the “acetylation at other identified lysines on H3.3 by quantitative MS” value is listed as “no acetylation”. The “competition of p300-p probe binding to p300” value at p300 is “efficiently competed”. In the experiment with TP53 target genes, the “changes of TP53 target genes in H1299 wt cells” value is on record as “minimal changes”.
